Several values for one entry are separate records, joined by “and”; a condition that tells them apart may be missing. Equal values may be shown once. Read-outs that look alike come from different tables or passages of the source. Marks after values point to notes of the source that are not given here.
Experiments:
CYP 2C19 [1] = assay: CYP induction (mRNA and CYP activity); assay type: in vitro ADME, human
From the text: (§1) The inhibition of cytochrome P450 (CYP) isoforms and a range of cellular transporters (except multidrug and toxin extrusion [MATE] proteins), as well as the induction of CYP isoforms were investigated using previously described methods.

MATE1 = biological target: T1, MATE1 (Homo sapiens, UniProt Q96FL8); assay: MATE1 transport assay in overexpressing HEK293 cells; assay type: in vitro ADME; details: probe substrate metformin 20 µM
T1 construct: expressed in transfected cells; host or cells: HEK293, stably transfected
T1 sequence (Q96FL8 1-570): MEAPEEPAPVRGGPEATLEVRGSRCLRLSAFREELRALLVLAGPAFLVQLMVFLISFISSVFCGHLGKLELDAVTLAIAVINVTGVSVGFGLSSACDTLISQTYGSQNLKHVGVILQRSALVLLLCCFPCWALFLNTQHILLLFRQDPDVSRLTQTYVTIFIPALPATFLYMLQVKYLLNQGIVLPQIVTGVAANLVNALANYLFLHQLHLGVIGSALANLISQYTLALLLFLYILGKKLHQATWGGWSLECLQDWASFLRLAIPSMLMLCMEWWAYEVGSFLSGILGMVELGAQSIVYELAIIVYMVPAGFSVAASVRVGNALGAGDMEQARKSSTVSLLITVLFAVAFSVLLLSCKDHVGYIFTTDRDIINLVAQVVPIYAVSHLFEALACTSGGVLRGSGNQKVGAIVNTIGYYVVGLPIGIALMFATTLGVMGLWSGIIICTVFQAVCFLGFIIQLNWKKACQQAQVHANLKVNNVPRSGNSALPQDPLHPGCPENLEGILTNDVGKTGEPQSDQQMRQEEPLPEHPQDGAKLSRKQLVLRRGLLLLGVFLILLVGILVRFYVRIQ
Description: as §1
Supplementary Material Current Drug Metabolism, 2023, Vol. 24, No. 8 iii […]
-, not determined; BCRP, breast cancer resistance protein; P-gp, P-glycoprotein; MATE, multidrug and toxin extrusion. aThe highest test concentration of 20 µM was not valid in this assay for technical reasons.
OAT, organic anion transporter; OATP, organic anion transporting polypeptide; OCT, organic cation transporters.
After thawing from frozen storage, aliquots of approximately 3 x 10^6 cells of human embryonic kidney (HEK293) cell line stable overex-pressing MATE1 or MATE2K were transferred to cell culture dishes containing 10 mL of DMEM-medium (supplemented with 10% FBS, 1% penicillin [10.000 U/mL]/streptomycin [10 mg/mL] and hygromycin B [150 µg/mL]) at 37°C. Transporter-transfected and vector-transfected HEK cells were grown on cell culture dishes at 37°C in a humidified 5% CO 2 atmosphere. All cell lines were confirmed free from mycoplasma by routine testing with conventional PCR. Cell cultures were split when they had grown to confluency. For passaging, cells were washed with PBS, exposed to trypsin-EDTA for 5 min at room temperature, collected by centrifugation, resuspended in culture medium and […]
MATE1 and MATE2K Transport Assays
Transporter-transfected and vector-transfected cells were prepared for use in uptake assays by harvesting and plating into 24-well-plates pre-coated with poly-D-lysine hydrobromide at a density of 2 x 10^5 cells/well and then cultured for 3 days in DMEM growth medium (high glucose, 10% FBS, 1% penicillin/streptomycin). For uptake assays, the growth medium was aspirated and each plate well was rinsed twice with HBSS supplemented with 20 mM HEPES, pH 7.4. The intracellular environment was acidified by preincubation in 30 mM NH4Cl in buffer pH 7.4 at 37°C for 30 min. […]

CYP 2C19 [2] = biological target: CYP 2C19 (Homo sapiens, UniProt P33261); assay: CYP inhibition with probe substrate; assay type: in vitro ADME; details: probe substrate mephenytoin
From the text: as §1

[3] = Mass balance and metabolite profiling in excreta after i.v. [14C]-nifurtimox in bile duct-cannulated (BDC) rats; assay type: in vivo, male Wistar rats; details: for administered dose secreted directly into the gut: gastrointestinal tract + feces
Description: (§2) Animals were housed in suitable metabolism cages. […] Blood cells and plasma were separated by centrifugation. Plasma was stored at ≤-15°C prior to analysis. […] All biological samples were weighed immediately. […] The remaining carcass was also wet-weighed.

[4] = Plasma PK of total radioactivity, [14C]-nifurtimox and metabolites after oral dosing (HPLC-LSC); assay type: in vivo; details: male Wistar rats; for half-life / Tmax: rat; for half-life: read-out: t½ (converted)
Description: as §2
Aliquots of individual plasma samples were pooled separately for each timepoint by equal volume. For protein precipitation, pooled plasma was treated with a three-fold volume of acetonitrile. Samples were homogenized and precipitated by centrifugation (20,000 g, 5 min). Samples were concentrated and analyzed using high-performance liquid chromatography (HPLC) with off-line radioactivity detection by LSC (HPLC-LSC).

[5] = Mass balance and metabolite profiling in excreta after oral [14C]-nifurtimox in intact rats; details: for component excreted in urine, oral dosing: intact male Wistar rats, 2.5 mg/kg oral; for component excreted in urine, oral dosing / radioactivity excreted in urine / radioactivity excreted in feces: up to 120 h
Description: After an adaption period, the animals were prepared for the study. Bile duct cannulation was performed on selected animals the day before their use in experiments.
In a mass balance study (n = 5) and a PK study (n = 2 per timepoint), 2.5 mg/kg b.w. […] For i.v. administration, 2.5 mg/kg b.w. […] In an additional stability study, male Wistar rats (n = 3 per timepoint) were administered 2.5 mg/kg b.w. […] The total radioactivity concentration in the dosage form was confirmed by liquid scintillation counting (LSC).
Animals were housed in suitable metabolism cages. Blood was collected from separate rats at 0.25, 0.5, 1, 1.5, 2, 3, 5, and 8 h post-dose and stored in lithium heparinized tubes. Blood cells and plasma were separated by centrifugation. Plasma was stored at ≤-15°C prior to analysis. […] At the end of the study, the cages were rinsed with water, and samples were collected. All biological samples were weighed immediately. Feces samples were homogenized with water to obtain a uniform radioactivity distribution. All samples were stored deep-frozen at ≤-15/-70°C before further processing. During the necropsy, selected organs and tissues were collected and wet-weighed. The remaining carcass was also wet-weighed. The carcass and all tissues were homogenized and stored at room temperature prior to processing for analysis. In the stability study, blood and urine were collected at 0.25 and 0.5 h post-dose. Plasma and urine were immediately frozen in liquid nitrogen and stored at -80°C to prevent degradation. The total radioactivity in samples and tissues was determined by LSC after appropriate sample preparation.
Aliquots of individual urine or bile samples were pooled separately for each time interval by equal volume and analyzed using HPLC-LSC. Aliquots of individual feces samples were pooled separately for each time interval, ensuring that each aliquot contained the same amount of radioactivity. The pooled samples were extracted twice with a mixture of acetonitrile/water (80:20 v/v, 2 x 0.5 mL). The resulting suspensions were centrifuged (20,000 g, 5 min), and the supernatants were then combined for each time interval, concentrated, and subjected to HPLC-LSC.
The amount of total radioactivity in urine, feces, bile, and tissues was determined by multiplying the volume or weight of the samples by the respective total radioactivity concentration. The amount of radioactivity recovered in the excreta (AE), cage wash, and tissues was compared with the administered radioactive dose to establish the radioactive balance. Cumulative excretion was calculated as the sum of the excretion for each collection interval. Arithmetic means and coefficients of variation (CV) were calculated for these percentages. During metabolite profiling, the concentration or amount of each analyte for each sample and timepoint or interval was calculated by multiplying the total radioactivity concentration or amount excreted of each sample with the percent area of each analyte obtained after HPLC-LSC separation.

[6] = rats, assuming oral bioavailability of 90% and fu 62.1%
[7] = Stability study: metabolite profiles in snap-frozen plasma and urine at early timepoints after oral [14C]-nifurtimox; assay type: in vivo, male Wistar rats; details: for share of sample radioactivity in plasma / share of sample radioactivity in urine: oral 2.5 mg/kg, snap-frozen
Description: as §2
The combined supernatant was analyzed directly using HPLC-LSC.

[8] = 30-min preincubation, read-out: Pre- IC50 (+ NADPH)
[9] = coincubation, read-out: Co- IC50
[10] = BDC male Wistar rats, 2.5 mg/kg i.v., up to 24 h
[11] = single oral 2.5 mg/kg [14C]-nifurtimox, pooled plasma
[12] = total radioactivity, i.v. 2.5 mg/kg, BDC rats
[13] = total radioactivity, i.v. 2.5 mg/kg, BDC rats, 24 h
[14] = total radioactivity, i.v. 2.5 mg/kg, BDC rats, 24 h, listed as [^14C]-nifurtimox, 2.5 mg/kg
[15] = total radioactivity, i.v. 2.5 mg/kg, BDC rats, 24 h, listed as [14C]-nifurtimox, 2.5 mg/kg
[16] = total radioactivity, oral 2.5 mg/kg, intact rats
[17] = total radioactivity, oral 2.5 mg/kg, intact rats, listed as [^14C]-nifurtimox, 2.5 mg/kg

Sequence of CYP 2C19 (Homo sapiens, UniProt P33261) (P33261 whole entry): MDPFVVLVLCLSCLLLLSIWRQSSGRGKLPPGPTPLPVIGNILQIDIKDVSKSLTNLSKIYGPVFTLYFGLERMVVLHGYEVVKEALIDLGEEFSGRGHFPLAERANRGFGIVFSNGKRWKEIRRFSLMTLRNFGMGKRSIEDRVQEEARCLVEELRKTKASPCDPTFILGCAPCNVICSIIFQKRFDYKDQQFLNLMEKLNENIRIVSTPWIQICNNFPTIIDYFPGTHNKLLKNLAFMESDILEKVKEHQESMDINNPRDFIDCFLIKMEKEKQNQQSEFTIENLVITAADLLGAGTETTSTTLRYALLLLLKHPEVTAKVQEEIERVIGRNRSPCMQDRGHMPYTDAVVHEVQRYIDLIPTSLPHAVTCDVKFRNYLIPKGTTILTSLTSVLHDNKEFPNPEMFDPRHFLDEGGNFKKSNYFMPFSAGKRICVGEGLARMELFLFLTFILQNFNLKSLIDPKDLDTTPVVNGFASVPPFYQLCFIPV

CC1CS(=O)(=O)CCN1n1cc(SCC(N)C(=O)O)ccc1=O (stereo not drawn) [M-4]
concentration up to which no induction (mRNA and CYP activity) (CYP 2C19 [1]): up to 80000 µg/L | IC50 (MATE1): > 5 µM | IC50 (CYP 2C19 [2]; [8]): > 20 µM | IC50 (CYP 2C19 [2]; [9]): > 20 µM | TDI (time-dependent inhibition) (CYP 2C19 [2]): No | component excreted in bile, i.v. dosing [3, 10]: 0.968 % of the administered dose | %AUC(0-8) (relative to total radioactivity AUC(0-8)) ([4]; oral 2.5 mg/kg, M-2+M-3, M-4, M-5 are estimates based on AUC(0-tn), 2.5 mg/kg): 2.42^c % | AUC [4, 11]: 791 µg-eq*h/L | AUC(0-tn) [4, 11]: 107 µg-eq*h/L | Cmax [4, 11]: 48.3 µg-eq/L | tn (time of last quantifiable concentration) [4, 11]: 3 h | half-life ([4]; single oral 2.5 mg/kg [14C]-nifurtimox, plasma, interval up to 8 h): 738 min | Tmax [4, 11]: 30 min | component excreted in urine, oral dosing [5]: no M-4 was detected

CC1CS(=O)(=O)CCN1N (stereo not drawn) [M-6]
concentration up to which no induction (mRNA and CYP activity) (CYP 2C19 [1]): up to 90000 µg/L | IC50 (MATE1): > 30 µM | IC50 (CYP 2C19 [2]; [8]): > 100 µM | IC50 (CYP 2C19 [2]; [9]): > 100 µM | TDI (time-dependent inhibition) (CYP 2C19 [2]): No

CC1CS(=O)(=O)CCN1/N=C/c1ccc([N+](=O)[O-])o1 (stereo not drawn) [Nifurtimox, (E)-N-(3-methyl-1,1-dioxo-1,4-thiazinan-4-yl)-1-(5-nitrofuran-2-yl) methanimine, reference compound]
IC50 (MATE1): > 20 µM | theoretical excretion based on glomerular filtration rate [6]: 23 % of the dose | component excreted in urine, i.v. dosing [3, 10]: 0.847 % of the administered dose | component excreted in bile, i.v. dosing ([3]; BDC male Wistar rats, 2.5 mg/kg i.v., up to 24 h, 2.5 mg/kg): 0.560 % of the administered dose | component excreted in bile, i.v. dosing ([3]; BDC male Wistar rats, 2.5 mg/kg i.v., up to 24 h, listed as nifurtimox, 2.5 mg/kg): 0.6 % of the administered dose | administered dose excreted in bile within 24 h [3, 12]: 17.7% | administered dose excreted in urine within 24 h [3, 12]: 49.6% | recovery of administered radioactivity at 24 h [3, 12]: 94.2% | dose in residues (body excluding the GIT) [3, 13]: 17.6% | dose in the cage wash [3, 13]: 2.48% | administered dose secreted directly into the gut ([3]; total radioactivity, i.v. 2.5 mg/kg, BDC rats, 24 h, 2.5 mg/kg): < 7% | administered dose secreted directly into the gut [3, 14]: 6.9% | dose excreted in feces [3, 15]: 2.45% | dose present in the gastrointestinal tract including contents [3, 15]: 4.45% | dose excreted in feces [3, 14]: 2.5% | dose present in the gastrointestinal tract including contents [3, 14]: 4.5% | t½ ([4]; single oral 2.5 mg/kg [14C]-nifurtimox, plasma, interval up to 8 h, 2.5 mg/kg): 86.4 min | AUC [4, 11]: 1730 µg-eq*h/L | AUC(0-8) [4, 11]: 1680 µg-eq*h/L | AUC(0-tn) [4, 11]: 1570 µg-eq*h/L | Cmax [4, 11]: 755 µg-eq/L | tn (time of last quantifiable concentration) [4, 11]: 5 h | half-life ([4]; male, Wistar, plasma, po, 2.5 mg/kg, single oral 2.5 mg/kg [14C]-nifurtimox, plasma, interval up to 8 h): 84 min | Tmax [4, 11]: 30 min | tmax of radioactivity ([4]; total radioactivity, oral 2.5 mg/kg): 30 min | share of sample radioactivity in plasma ([7]; 0.25 h post-dose): 81.5 % of sample radioactivity | share of sample radioactivity in urine ([7]; 0.25 h post-dose): 11 % of sample radioactivity | share of sample radioactivity in plasma ([7]; 0.5 h post-dose): 72.5 % of sample radioactivity | share of sample radioactivity in urine ([7]; 0.5 h post-dose): 4 % of sample radioactivity | stability in plasma ([7]; authors' conclusion from plasma profiles): appears to be stable in plasma | component excreted in urine, oral dosing ([5]; 2.5 mg/kg): 0.117 % of the administered dose | component excreted in urine, oral dosing ([5]; listed as [^14C]-nifurtimox, 2.5 mg/kg): 0.1 % of the administered dose | component excreted in urine, oral dosing ([5]; listed as nifurtimox, 2.5 mg/kg): < 1 % of the administered dose | share of sample radioactivity in urine ([5]; pooled urine 0-8 h post-dose, oral 2.5 mg/kg): 0.3 % of sample radioactivity | total recovery including excreta, residues, and cage wash ([5]; total radioactivity, 120 h after oral dosing): 97.3% | administered radioactivity excreted within 24 h [5, 16]: approximately 86% | radioactivity excreted within 120 h (urine + feces) [5, 16]: 92.4 % of dose | radioactivity excreted in urine ([5]; total radioactivity, oral 2.5 mg/kg, intact rats, 2.5 mg/kg): 48.6 % of dose | radioactivity excreted in feces ([5]; total radioactivity, oral 2.5 mg/kg, intact rats, listed as [14C]-nifurtimox, 2.5 mg/kg): 43.8 % of dose | radioactivity excreted in feces [5, 17]: 43.8 % of dose and 49 % of dose | radioactivity excreted in urine [5, 17]: 48.6 % of dose and 44 % of dose

Source: paper PMC10661964 (Current Drug Metabolism, 2023)
